In article PMC9637228, “Elucidating host cell response pathways and repurposing therapeutics for SARS-CoV-2 and other coronaviruses” (Scientific Reports, 2022):
“Also recorded” adds a separate entry of the source. Where a name gives a salt, the structure may show the parent alone. Read-outs that look alike come from different tables or passages of the source.

Legend:
SARS-CoV-2 [1] = assay: microbe, parasite or virus in culture; assay type: cell-based; conditions: for IC50: SARS-CoV-2 infected Vero cells; for anti-SARS-CoV-2 activity (in words): Vero cell assay
in vitro = conditions: African green monkey, Vero cells
HCoV-229E = assay: Anti-HCoV-229E compound testing in MRC5 cells (Cell-Titer Glo); assay type: cell-based; conditions: for EC50: Human coronavirus 229E; for activity against HCoV-229E (in words): MRC5 cells
Method: (§1) Human lung fibroblast MRC5 cells were cultured in a 96-well plate at 10,000 cells/well in EMEM + 10% FBS overnight. The next day the culture medium was removed from each well and compounds in EMEM + 2% FBS + 0.5% DMSO were added. Each drug was tested on its own 96 well plate. Each plate contained 3 wells of uninfected cells without DMSO, 3 wells of uninfected cells with 0.5% DMSO, 3 wells of infected cells with no DMSO, and 3 wells of infected cells with 0.5% DMSO. Experimental compounds were tested in triplicate at each concentration. Tanespimycin, bortezomib, and homoharringtonine were tested using 2 µM starting concentration, 8-point, threefold serial dilution. After a 1-h pre-incubation with testing compounds, HCoV-229E or HCoV-OC43 viruses at an MOI of 0.01 were added to the culture with compounds for another 1 h. Cell-Titer Glo assay was added after additional incubation time with compounds of interest (HCoV-229E for 96 h and HCoV-OC43 for 120 h). Assay readout was performed using luminescence measurement on a Tecan Spark plate reader.
(§2) CC50 values were determined by applying nonlinear fit of luminescence readouts from uninfected, compound-treated wells against compound concentration. Likewise, EC50 values were determined by nonlinear fit of luminescence readouts from virus-infected, compound-treated wells. Nonlinear regression models were applied for derivation of EC50 and CC50 values respectively, based on built-in equations of Prism Version 8.2.1 (GraphPad Software, San Diego, CA). SI calculated as the ratio of CC50 to EC50.

HCoV-OC43 = assay: Anti-HCoV-OC43 compound testing in MRC5 cells (Cell-Titer Glo); assay type: cell-based; conditions: for activity against HCoV-OC43 (in words): MRC5 cells
Method: as §1, §2

SARS-CoV-1 = conditions: 10 μM, Huh-7 cells; cited from earlier work
SARS-CoV-2 [2] = conditions: 10 μM, Huh-7 cells; cited from earlier work
MERS-CoV = conditions: 10 μM, Huh-7 cells; cited from earlier work
[3] = Cytotoxicity (cell viability) in the SARS-CoV-2 Vero cell assay; conditions: African green monkey, Vero cells
[4] = Cytotoxicity in uninfected, compound-treated MRC5 cells (Cell-Titer Glo); conditions: human
[5] = Clinical dosing estimation of compounds (clinical exposure, Cmax); conditions: calculated from published Cmax and molecular weight
[6] = human, in vivo
Vero cells = assay: Cytotoxicity (cell viability) in the SARS-CoV-2 Vero cell assay; conditions: Table 2 test
SARS-CoV-2 [7] = conditions: read-out: reported IC50; cited from earlier work
[8] = Severe acute respiratory syndrome coronavirus 2, Vero, 24 h, Table 2 test (average reversal score predicted compounds)
[9] = Severe acute respiratory syndrome coronavirus 2, Vero, Round 1, 24 h, 1-h preincubation
[10] = Severe acute respiratory syndrome coronavirus 2, Vero, Round 2, 24 h, 1-h preincubation
[11] = Severe acute respiratory syndrome coronavirus 2, Vero, Round 2, 24 h, 1-h preincubation, read-out: IC50
[12] = Betacoronavirus 1, MRC5 cells infected with HCoV-OC43, MOI 0.01, 120 h, read-out: EC50
[13] = MRC5 cells infected with HCoV-229E, MOI 0.01, 96 h, read-out: EC50
[14] = uninfected MRC5 lung fibroblast cells
[15] = Severe acute respiratory syndrome coronavirus 2, Vero, Round 1, 24 h, 1-h preincubation, read-out: IC50

Structure (SMILES): CCN(CC)CCCC(C)Nc1ccnc2cc(Cl)ccc12 (stereo not shown) [Chloroquine]
- IC50 (SARS-CoV-2 [1]; [8]): 11.3 µM
- IC50 (SARS-CoV-2 [1]; [9]): 12 µM
- IC50 (SARS-CoV-2 [1]; [10]): 9.8 µM
- CC50 (in vitro; CC50, Round 1): 128 µM
- CC50 (in vitro; CC50, Round 2): > 150 µM
- CC50 (in vitro; CC50, Table 2 test): > 150 µM

Structure (SMILES): C=CCNC1=C2C[C@@H](C)C[C@H](OC)[C@H](O)[C@@H](C)/C=C(\C)[C@H](OC(N)=O)[C@@H](OC)/C=C\C=C(/C)C(=O)NC(=CC1=O)C2=O [Tanespimycin]
- IC50 (SARS-CoV-2 [1]; [11]): 31.3 µM
- anti-SARS-CoV-2 activity (in words) (SARS-CoV-2 [1]): no activity
- anti-SARS-CoV-2 activity (in words) (SARS-CoV-2 [1]; listed as tanespimycin): neither tanespimycin nor a second generation HSP90 inhibitor ganetespib exhibited anti-viral efficacy
- EC50 (HCoV-229E; MRC5): < 0.001 µM
- EC50 (HCoV-229E; MRC5, 96 h): 0.0036 µM
- activity against HCoV-229E (in words) (HCoV-229E): effective
- activity against HCoV-229E (in words) (HCoV-229E; listed as tanespimycin): highly potent
- EC50 (HCoV-OC43; Betacoronavirus 1, OC43, MRC5): < 0.001 µM
- EC50 (HCoV-OC43; [12]): 0.0019 µM
- activity against HCoV-OC43 (in words) (HCoV-OC43): effective
- activity against HCoV-OC43 (in words) (HCoV-OC43; listed as tanespimycin): highly potent
- inhibition of viral activities of SARS-CoV-1 (SARS-CoV-1): effectively inhibited
- inhibition of viral activities of SARS-CoV-2 (SARS-CoV-2 [2]): effectively inhibited
- inhibition of viral activities of MERS-CoV (MERS-CoV): effectively inhibited
- CC50 at 24 h ([3]; CC50, Round 2): > 50 µM
- CC50 at 96 h [4]: 0.182 µM
- CC50 at 120 h [4]: 0.253 µM

Structure (SMILES): N[C@@H](CC(=O)N1CCn2c(nnc2C(F)(F)F)C1)Cc1cc(F)c(F)cc1F [Sitagliptin]
- IC50 (SARS-CoV-2 [1]; Severe acute respiratory syndrome coronavirus 2, Vero, 24 h, Table 2 test (average reversal score predicted compounds), read-out: IC50): > 50 µM
- anti-SARS-CoV-2 activity (in words) (SARS-CoV-2 [1]): did not show meaningful anti-SARS-CoV-2 activity
- CC50 at 24 h ([3]; CC50, Table 2 test): > 50 µM

Structure (SMILES): COC(=O)C[C@](O)(CCCC(C)(C)O)C(=O)O[C@@H]1C(OC)=C[C@]23CCCN2CCc2cc4c(cc2[C@H]13)OCO4 [Homoharringtonine]
- average EC50/IC50 (SARS-CoV-2 [1]; SARS-CoV-2, Vero cells, average of the rounds): under 300 nM
- IC50 (SARS-CoV-2 [1]; [9]): 0.16 µM
- IC50 (SARS-CoV-2 [1]; [10]): 0.26 µM
- anti-SARS-CoV-2 activity (in words) (SARS-CoV-2 [1]): highly effective
- EC50 (HCoV-229E; MRC5): < 0.1 µM
- EC50 (HCoV-229E; [13]): 0.0511 µM
- activity against HCoV-229E (in words) (HCoV-229E): highly effective
- EC50 (HCoV-OC43; Betacoronavirus 1, OC43, MRC5): < 0.1 µM
- EC50 (HCoV-OC43; [12]): 0.126 µM
- activity against HCoV-OC43 (in words) (HCoV-OC43): highly effective
- CC50 at 24 h ([3]; CC50, Round 1): 2.14 µM
- CC50 at 24 h ([3]; CC50, Round 2): 6.22 µM
- Clinical Exposure [5]: 0.046 µM
- CC50 at 96 h [4, 14]: 0.205 µM
- CC50 at 120 h [4, 14]: 0.167 µM

Structure (SMILES): CC(C)C[C@H](NC(=O)CNC(=O)c1cc(Cl)ccc1Cl)B(O)O [Ixazomib]
- IC50 (SARS-CoV-2 [1]; [11]): 11.7 µM
- anti-SARS-CoV-2 activity (in words) (SARS-CoV-2 [1]): showed efficacy in controlling viral load
- CC50 at 24 h ([3]; CC50, Round 2): > 50 µM

Structure (SMILES): Cc1nc(Nc2ncc(C(=O)Nc3c(C)cccc3Cl)s2)cc(N2CCN(CCO)CC2)n1 [Dasatinib]
- IC50 (SARS-CoV-2 [1]; [15]): 19.7 µM
- CC50 at 24 h ([3]; CC50, Round 1): 13.2 µM

Structure (SMILES): CCOC(=O)C1=C(C)NC(C)=C(C(=O)OCC)C1c1ccccc1/C=C/C(=O)OC(C)(C)C [Lacidipine]
- IC50 (SARS-CoV-2 [1]; [15]): 14.9 µM
- Clinical Exposure [6]: 0.003 to 0.013 µM
- CC50 at 24 h ([3]; CC50, Round 1): 20.2 µM

Structure (SMILES): Cc1ccc(Cl)c(Nc2ccccc2C(=O)O)c1Cl [Meclofenamic acid sodium salt]
- CC50 at 24 h ([3]; CC50, Table 2 test): > 50 µM

Structure (SMILES): CC(=O)Nc1cccc(-n2c(=O)n(C3CC3)c(=O)c3c(Nc4ccc(I)cc4F)n(C)c(=O)c(C)c32)c1 [Trametinib]
- IC50 (SARS-CoV-2 [1]; [15]): 15 µM
- CC50 at 24 h ([3]; CC50, Round 1): > 50 µM
- Clinical Exposure [5]: 0.045 µM

Structure (SMILES): CC[C@@H](C(N)=O)N1CCCC1=O [Levetiracetam]
- IC50 (SARS-CoV-2 [1]; [8]): > 50 µM
- anti-SARS-CoV-2 activity (in words) (SARS-CoV-2 [1]): no anti-viral activity
- anti-SARS-CoV-2 activity (in words) (SARS-CoV-2 [1]; listed as levetiracetam): did not show meaningful anti-SARS-CoV-2 activity; also recorded: did not result in a meaningful effect on viral production
- CC50 at 24 h ([3]; CC50, Table 2 test): > 50 µM

Structure (SMILES): CCC(CC)COC(=O)[C@H](C)N[P@](=O)(OC[C@H]1O[C@@](C#N)(c2ccc3c(N)ncnn23)[C@H](O)[C@@H]1O)Oc1ccccc1 [Remdesivir]
- IC50 (SARS-CoV-2 [1]; [8]): 8.58 µM
- IC50 (SARS-CoV-2 [1]; [9]): 12.1 µM
- IC50 (SARS-CoV-2 [1]; [10]): 7.45 µM
- CC50 at 24 h ([3]; CC50, Round 1): > 50 µM
- CC50 at 24 h ([3]; CC50, Round 2): > 50 µM
- CC50 at 24 h ([3]; CC50, Table 2 test): > 50 µM

Structure (SMILES): O=C(O)c1ccccc1Nc1cccc(OCc2ccc3ccccc3n2)c1 [SR-2640 hydrochloride]
- IC50 (SARS-CoV-2 [1]; [8]): 24.2 µM
- anti-SARS-CoV-2 activity (in words) (SARS-CoV-2 [1]): did not result in a meaningful effect on viral production
- CC50 at 24 h ([3]; CC50, Table 2 test): > 50 µM

Structure (SMILES): N[C@@H]1CCCN(c2c(/C=C3\SC(=O)NC3=O)cccc2-c2ccccc2)C1 [AZD-1208]
- IC50 (SARS-CoV-2 [1]; Table 2 test (average reversal score predicted compounds), read-out: IC50): 27.3 µM
- CC50 (Vero cells): > 50 µM

Structure (SMILES): Cc1cccc(C)c1OCC(=O)N[C@@H](Cc1ccccc1)[C@@H](O)C[C@H](Cc1ccccc1)NC(=O)[C@H](C(C)C)N1CCCNC1=O [Lopinavir]
- IC50 (SARS-CoV-2 [1]; [8]): 12.6 µM
- IC50 (SARS-CoV-2 [1]; [10]): 13.5 µM
- CC50 at 24 h ([3]; CC50, Round 2): > 50 µM
- CC50 at 24 h ([3]; CC50, Table 2 test): > 50 µM

Structure (SMILES): CC(C)c1cc(-c2n[nH]c(=O)n2-c2ccc3c(ccn3C)c2)c(O)cc1O [Ganetespib]
- IC50 (SARS-CoV-2 [1]; [11]): 35.5 µM
- anti-SARS-CoV-2 activity (in words) (SARS-CoV-2 [1]): no activity; also recorded: neither tanespimycin nor a second generation HSP90 inhibitor ganetespib exhibited anti-viral efficacy
- CC50 at 24 h ([3]; CC50, Round 2): 28.9 µM

Structure (SMILES): C#CCC(Cc1cnc2nc(N)nc(N)c2n1)c1ccc(C(=O)N[C@@H](CCC(=O)O)C(=O)O)cc1 (stereo partly shown) [Pralatrexate]
- IC50 (SARS-CoV-2 [7]): 0.008 µM

Structure (SMILES): CC(C)C[C@H](NC(=O)[C@H](Cc1ccccc1)NC(=O)c1cnccn1)B(O)O [Bortezomib]
- IC50 (SARS-CoV-2 [1]; [15]): 1.39 µM
- IC50 (SARS-CoV-2 [1]; [11]): 3.42 µM
- anti-SARS-CoV-2 activity (in words) (SARS-CoV-2 [1]): showed efficacy in controlling viral load
- EC50 (HCoV-229E; [13]): 0.252 µM
- activity against HCoV-229E (in words) (HCoV-229E): no activity
- activity against HCoV-229E (in words) (HCoV-229E; listed as bortezomib): did not find bortezomib to be effective
- EC50 (HCoV-OC43; [12]): 0.666 µM
- activity against HCoV-OC43 (in words) (HCoV-OC43): no activity
- activity against HCoV-OC43 (in words) (HCoV-OC43; listed as bortezomib): did not find bortezomib to be effective
- Clinical Exposure [6]: 0.29 µM
- Clinical Exposure ([6]; iv): approximately 580 nM
- CC50 at 24 h ([3]; CC50, Round 1): > 50 µM
- CC50 at 24 h ([3]; CC50, Round 2): > 50 µM
- CC50 at 96 h [4, 14]: 0.536 µM
- CC50 at 120 h [4, 14]: 0.591 µM
